Experimental data reported in patent US11702422B2, “Imidazopyridazines as modulators of IL-17” (Janssen Pharmaceutica NV, priority 2020, dated 2023).

Legend:
[1] = tested on: IL-17A-induced G-CSF production in human normal keratinocyte (NHK); test: NHK Assay: IL-17A-induced G-CSF production in human normal keratinocytes; type: cell-based; conditions: adult normal human keratinocytes, IL-17A 5 ng/mL, 24 h, simple average if tested more than once
In short: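 Inhibition of IL-17A-driven G-CSF release is measured in adult keratinocytes stimulated for 24 h at 37° C with 5 ng/mL human IL-17A that had been pre-incubated with compound for 1 h. IC50 comes from HTRF G-CSF levels; cell viability is checked in parallel by luminescent ATP assay.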

[2] = target: IL-17A(FLAG-Tagged): IL-17RA(His-Tagged) (Homo sapiens, UniProt Q16552, K93Q); test: IL-17A(FLAG-Tagged): IL-17RA(His-Tagged) Binding Disruption Eu-HTRF Assay; conditions: IL-17A/IL-17RA binding disruption, simple average if tested more than once
UniProt Q16552, sequence (Q16552 with tags, fused parts or gaps K93Q): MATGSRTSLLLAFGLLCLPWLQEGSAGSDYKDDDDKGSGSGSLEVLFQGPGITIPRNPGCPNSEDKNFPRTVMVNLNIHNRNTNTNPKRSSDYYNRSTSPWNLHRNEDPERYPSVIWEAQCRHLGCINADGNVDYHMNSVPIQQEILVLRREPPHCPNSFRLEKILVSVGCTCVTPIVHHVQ
In short: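 IC50 comes from a one-site competition fit of the HTRF 665/620 nm ratio. Compound dilutions (2-fold, 22 points) were held 1 h rt with FLAG-tagged IL-17A dimer, then His-tagged IL-17RA plus Eu-cryptate anti-FLAG and D2 anti-His antibodies were added for 2 h rt.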

Row | Compound | IC50 [2] [nM] | IC50 [1] [nM] | IC50 ([1]; Homo sapiens, Keratinocyte) [nM]
1 | O=C(CCC(F)(F)F)N[C@@H](c1cnn2cc([C@@H](NC(=O)c3ccccc3Cl)C3CCC(F)(F)CC3)nc2c1)C1CC1 [Example 42, 2-Chloro-N—((S)-(7-((R)-cyclopropyl(4,4,4-trifluorobutanamido)methyl)imidazo[1,2-b]pyridazin-2-yl)(4,4-difluorocyclohexyl)methyl)benzamide] | 410 | – | 2200
2 | Cc1nonc1C(=O)N[C@H](c1cn2ncc([C@H](NC(=O)C(F)C3CC3)C3CC3)cc2n1)C1CCC(F)(F)CC1 (single isomer, unassigned) [Example 331, N—((S)-(7-((R)-Cyclopropyl((R*)-2-cyclopropyl-2-fluoroacetamido)methyl)imidazo[1,2-b]pyridazin-2-yl)(4,4-difluorocyclohexyl)methyl)-4-methyl-1,2,5-oxadiazole-3-carboxamide] | 310 | 1500 | –
3 | Cc1ncncc1C(=O)N[C@H](c1cn2ncc([C@H](NC(=O)CCC(F)(F)F)C3CC3)cc2n1)C1CCC(F)(F)CC1 [Example 222, N—((S)-(7-((R)-Cyclopropyl(4,4,4-trifluorobutanamido)methyl)imidazo[1,2-b]pyridazin-2-yl)(4,4-difluorocyclohexyl)methyl)-4-methylpyrimidine-5-carboxamide] | 1000 | – | > 20000
4 | O=C(CCC(F)(F)F)N[C@@H](c1cnn2cc([C@@H](NC(=O)c3cnn(CCOC(F)F)c3)C3CCC(F)(F)CC3)nc2c1)C1CC1 [Example 37, N—((S)-(7-((R)-Cyclopropyl(4,4,4-trifluorobutanamido)methyl)imidazo[1,2-b]pyridazin-2-yl)(4,4-difluorocyclohexyl)methyl)-1-(2-(difluoromethoxy)ethyl)-1H-pyrazole-4-carboxamide] | 230 | – | 630

More lines, in order of falling IC50 [2], values ahead:

Row | IC50 [2] [nM] | Compound | IC50 [1] [nM] | IC50 ([1]; Homo sapiens, Keratinocyte) [nM]
5 | 1000 | Cc1nonc1C(=O)N[C@H](c1cn2ncc(C(NC(=O)CC3CC(F)(F)C3)C3CCC3)cc2n1)C1CCC(F)(F)CC1 (single isomer, unassigned) [Example 494, N—((S)-(7-((S*)-Cyclobutyl(2-(3,3-difluorocyclobutyl)acetamido)methyl)imidazo[1,2-b]pyridazin-2-yl)(4,4-difluorocyclohexyl)methyl)-4-methyl-1,2,5-oxadiazole-3-carboxamide] | > 20000 | –
6 | 520 | Cc1nonc1C(=O)N[C@H](c1cn2ncc([C@H](NC(=O)[C@@H]3CNC[C@H]3C(F)(F)F)C3CC3)cc2n1)C1CCC(F)(F)CC1 (relative stereo) [Example 356, N—((S)-(7-((R)-Cyclopropyl((trans-3S*,4S*)-4-(trifluoromethyl)pyrrolidine-3-carboxamido)methyl)imidazo[1,2-b]pyridazin-2-yl)(4,4-difluorocyclohexyl)methyl)-4-methyl-1,2,5-oxadiazole-3-carboxamide] | – | 7800
7 | 290 | O=C(CCC(F)(F)F)NC(c1cnn2cc([C@@H](NC(=O)c3cnn(CCC(F)(F)F)c3)C3CCC(F)(F)CC3)nc2c1)C1CC1 (single isomer, unassigned) [Example 6, N—((S)-(7-((R*)-Cyclopropyl(4,4,4-trifluorobutanamido)methyl)imidazo[1,2-b]pyridazin-2-yl)(4,4-difluorocyclohexyl)methyl)-1-(3,3,3-trifluoropropyl)-1H-pyrazole-4-carboxamide] | 570 | –
8 | 68 | O=C(CC1CC(F)(F)C1)NC(c1cnn2cc([C@@H](NC(=O)c3cnn(CC4CC4)n3)C3CCC(F)(F)CC3)nc2c1)C1CC1 (single isomer, unassigned) [Example 26, N—((S)-(7-((R*)-Cyclopropyl(2-(3,3-difluorocyclobutyl)acetamido)methyl)imidazo[1,2-b]pyridazin-2-yl)(4,4-difluorocyclohexyl)methyl)-2-(cyclopropylmethyl)-2H-1,2,3-triazole-4-carboxamide] | – | 230
